The values that follow come from patent US20230091888A1, “HERBICIDE COMBINATIONS COMPRISING GLUFOSINATE AND SELECTED PPO INHIBITORS” (BASF SE, priority 2020, published 2023).

Assay in all cases: Greenhouse post-emergence weed control, percent injury vs untreated control
What all share (type): in vivo
Settings in all cases: 19 DAT

Experiment [1] relates to Echinochloa crus-galli (ECHCG).
For experiment [2], the system named is Ambrosia artemisiifolia (AMBEL).
The subject of a further experiment is Galium aparine (GALAP).
The subject of experiment [3] is Amaranthus tuberculatus (AMATU).
A further experiment deals with Hordeum vulgare (HORVS).
The subject of experiment [4] is Amaranthus Palmeri (AMAPA).

Take `CP(=O)(O)CCC(N)C(=O)O` (racemic) [Glufosinate, (2RS)-2-amino-4-[hydroxy(methyl)phosphinoyl]butyric acid]: the inhibition at 50 g/ha was 10% in experiment [1] (Echinochloa crus-galli, 456 h, 50 g ai/ha, read-out: Solo Glufosinate (50 g ai/ha) % activity); 40% in experiment [2] (Ambrosia artemisiifolia, 456 h, 50 g ai/ha, read-out: Solo Glufosinate (50 g ai/ha) % activity); 30% in the experiment on Galium aparine (GALAP) (Galium aparine, 456 h, 50 g ai/ha, read-out: Solo Glufosinate (50 g ai/ha) % activity); 40% in experiment [3] (Amaranthus tuberculatus, 456 h, 50 g ai/ha, read-out: Solo Glufosinate (50 g ai/ha) % activity); 35% in experiment [4] (Amaranthus palmeri, 456 h, 50 g ai/ha, read-out: Solo Glufosinate (50 g ai/ha) % activity). The inhibition at 100 g/ha in experiment [1] (Echinochloa crus-galli, 456 h, 100 g ai/ha, read-out: Solo Glufosinate (100 g ai/ha) % activity) came to 25%; in experiment [3] (Amaranthus tuberculatus, 456 h, 100 g ai/ha, read-out: Solo Glufosinate (100 g ai/ha) % activity), 70%; with Hordeum vulgare (HORVS) (Hordeum vulgare, 456 h, 100 g ai/ha, read-out: Solo Glufosinate (100 g ai/ha) % activity), 0%; in experiment [4] (Amaranthus palmeri, 456 h, 100 g ai/ha, read-out: Solo Glufosinate (100 g ai/ha) % activity), 30%. The inhibition at 200 g/ha in experiment [1] (Echinochloa crus-galli, 456 h, 200 g ai/ha, read-out: Solo Glufosinate (200 g ai/ha) % activity) is 70%; in experiment [3] (Amaranthus tuberculatus, 456 h, 200 g ai/ha, read-out: Solo Glufosinate (200 g ai/ha) % activity), 90%; in the experiment on Hordeum vulgare (HORVS) (Hordeum vulgare, 456 h, 200 g ai/ha, read-out: Solo Glufosinate (200 g ai/ha) % activity), 30%; in experiment [4] (Amaranthus palmeri, 456 h, 200 g ai/ha, read-out: Solo Glufosinate (200 g ai/ha) % activity) it was 80%.
Consider `C#CCN(C)c1c(C#N)cnn1-c1nn2c(c1Cl)CCCC2` [Pyraclonil], for which the figures for the “Solo pyraclonil (1.5625 g ai/ha) % activity” value in experiment [2] (1.5625 g ai/ha) and in experiment [3] (1.5625 g ai/ha) were 25% and 20%, respectively. Besides, the entries for the “Solo Pyraclonil (6.25 g ai/ha) % activity” value in experiment [2] (6.25 g ai/ha), in experiment [3] (6.25 g ai/ha) and in experiment [4] (6.25 g ai/ha) were 65%, 35% and 20%, respectively. For the same compound, the “Solo pyraclonil (3.125 g ai/ha) % activity” value with Hordeum vulgare (HORVS) (3.125 g ai/ha) was 0%; in experiment [4] (3.125 g ai/ha), 30%.
`N#Cc1cnn(-c2nn3c(c2Cl)CCCC3)c1NCC1CC1` [cyclopyranyl, cyclopyranil]: the “Solo cyclopyranyl (6.25 g ai/ha) % activity” value in experiment [1] (6.25 g ai/ha) is given as 25%; with Galium aparine (GALAP) (6.25 g ai/ha), 65%; in experiment [3] (6.25 g ai/ha) it was 65%; with Hordeum vulgare (HORVS) (6.25 g ai/ha), 15%; in experiment [4] (6.25 g ai/ha) it was 25%. The “Solo cyclopyranyl (1.5625 g ai/ha) % activity” value in experiment [4] (1.5625 g ai/ha) amounted to 10%. For the same compound, the “Solo cyclopyranyl (3.125 g ai/ha) % activity” value in experiment [4] (3.125 g ai/ha) is 10%.
On to Oxadiargyl, for which the “Solo Oxadiargyl (3.125 g ai/ha) % activity” value in experiment [1] (3.125 g ai/ha) amounted to 15%; in experiment [2] (3.125 g ai/ha) it was 20%; in experiment [4] (3.125 g ai/ha), 40%. The “Solo Oxadiargyl (6.25 g ai/ha) % activity” value in experiment [2] (6.25 g ai/ha) was determined as 10%; in experiment [3] (6.25 g ai/ha) it was 40%; in experiment [4] (6.25 g ai/ha), 30%.
